In US12331040B2 (Karyopharm Therapeutics Inc., priority 2013, dated 2025):
Like-named read-outs stand apart in the source and are kept apart here.

Key:
Assay in all cases: MTT cell proliferation assay
Type in all cases: cell-based
[1] = tested on: Z138 cells; details: Homo sapiens, Z-138, Z138 cells, approximately 64-72 hours incubation
Method in brief: (§1)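 5,000-10,000 cells/well, overnight attach; 8 conc., 1 nM–30 μM; MTT ~4 h; formazan solubilized, OD 490 nm; % inhibition = (1−(ODo/OD))×100 vs neg. control; mostly duplicate, mean±SE.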

[2] = tested on: MS751 cells; details: Homo sapiens, MS751, MS751 cells, approximately 64-72 hours incubation
Method in brief: as §1

[3] = tested on: 3T3 cells; details: Mus musculus, NIH3T3, approximately 64-72 hours incubation
Method in brief: as §1

[4] = read-out: MTT Assay IC50 MS-751
[5] = read-out: MTT Assay IC50, Z-138
[6] = read-out: MTT Assay IC50, MS-751

Compound	IC50 ([1]; read-out: MTT Assay IC50 Z-138)	IC50 [2, 4]	IC50 ([3]; read-out: MTT Assay IC50 3T3)	IC50 [1, 5]	IC50 [2, 6]	IC50 ([3]; read-out: MTT Assay IC50, 3T3)
Nc1ccc(/C=C/C(=O)NCc2cc3cc(-c4ccc(F)c(S(=O)(=O)N5CCOCC5)c4)cc(Cl)c3o2)cn1 [Compound 636, (E)-3-(6-aminopyridin-3-yl)-N-((7-chloro-5-(4-fluoro-3-(morpholinosulfonyl)phenyl)benzofuran-2-yl)methyl)acrylamide]	0.1 to 5 µM	0.1 to 5 µM	> 10 µM	–	–	–
COc1cc(-c2ccc(C(=O)N3CCNCC3)cc2)cc2cc(CNC(=O)/C=C/c3ccc(N)nc3)oc12 [Compound 637, (E)-3-(6-aminopyridin-3-yl)-N-((7-methoxy-5-(4-(piperazine-1-carbonyl)phenyl)benzofuran-2-yl)methyl)acrylamide]	0.1 to 5 µM	0.1 to 5 µM	> 10 µM	–	–	–
COc1cc(-c2ncc(C(=O)N3CCOCC3)cn2)cc2cc(CNC(=O)/C=C/c3ccc(N)nc3)oc12 [Compound 638, (E)-3-(6-aminopyridin-3-yl)-N-((7-methoxy-5-(5-(morpholine-4-carbonyl)pyrimidin-2-yl)benzofuran-2-yl)methyl)acrylamide]	< 0.1 µM	0.1 to 5 µM	> 10 µM	–	–	–
COc1cc(-c2ncc(C(=O)N3CCNCC3)cn2)cc2cc(CNC(=O)/C=C/c3ccc(N)nc3)oc12 [Compound 639, (E)-3-(6-aminopyridin-3-yl)-N-((7-methoxy-5-(5-(piperazine-1-carbonyl)pyrimidin-2-yl)benzofuran-2-yl)methyl)acrylamide]	0.1 to 5 µM	0.1 to 5 µM	> 10 µM	–	–	–
COc1cc(-c2ccc(C(=O)N3CCOCC3)cn2)cc2cc(CNC(=O)/C=C/c3ccc(N)nc3)oc12 [Compound 640, (E)-3-(6-aminopyridin-3-yl)-N-((7-methoxy-5-(5-(morpholine-4-carbonyl)pyridin-2-yl)benzofuran-2-yl)methyl)acrylamide]	< 0.1 µM	< 0.1 µM	> 10 µM	–	–	–
COc1cc(-c2ccc(C(=O)N3CCNCC3)cn2)cc2cc(CNC(=O)/C=C/c3ccc(N)nc3)oc12 [Compound 641, (E)-3-(6-aminopyridin-3-yl)-N-((7-methoxy-5-(5-(piperazine-1-carbonyl)pyridin-2-yl)benzofuran-2-yl)methyl)acrylamide]	< 0.1 µM	< 0.1 µM	> 10 µM	–	–	–
Nc1ccc(/C=C/C(=O)NCc2cc3cc(-c4ccc(S(=O)(=O)N5CC(F)(F)C5)cc4)cc(Cl)c3o2)cn1 [Compound 642, (E)-3-(6-aminopyridin-3-yl)-N-((7-chloro-5-(4-(3,3-difluoroazetidin-1-ylsulfonyl)phenyl)benzofuran-2-yl)methyl)acrylamide]	0.1 to 5 µM	0.1 to 5 µM	> 10 µM	–	–	–
Nc1ccc(/C=C/C(=O)NCc2cc3cc(-c4ccc(S(=O)(=O)N5CC[C@H](F)C5)cc4)cc(Cl)c3o2)cn1 [Compound 643, (S,E)-3-(6-aminopyridin-3-yl)-N-((7-chloro-5-(4-(3-fluoropyrrolidin-1-ylsulfonyl)phenyl)benzofuran-2-yl)methyl)acrylamide]	0.1 to 5 µM	0.1 to 5 µM	> 10 µM	–	–	–
Nc1ccc(/C=C/C(=O)NCc2cc3cc(-c4ccc(S(=O)(=O)N5CC(F)(F)C5)cc4)cc(C(F)(F)F)c3o2)cn1 [Compound 644, (E)-3-(6-aminopyridin-3-yl)-N-((5-(4-(3,3-difluoroazetidin-1-ylsulfonyl)phenyl)-7-(trifluoromethyl)benzofuran-2-yl)methyl)acrylamide]	0.1 to 5 µM	5 to 10 µM	> 10 µM	–	–	–
Nc1ccc(/C=C/C(=O)NCc2cc3cc(-c4ccc(C(=O)N5CC(F)(F)C5)cn4)cc(C(F)(F)F)c3o2)cn1 [Compound 645, (E)-3-(6-aminopyridin-3-yl)-N-((5-(5-(3,3-difluoroazetidine-1-carbonyl)pyridin-2-yl)-7-(trifluoromethyl)benzofuran-2-yl)methyl)acrylamide]	< 0.1 µM	0.1 to 5 µM	> 10 µM	–	–	–
CN(C)c1ccc(-c2cc(Cl)c3oc(CNC(=O)/C=C/c4ccc(N)nc4)cc3c2)nc1 [Compound 646, (E)-3-(6-aminopyridin-3-yl)-N-((7-chloro-5-(5-(dimethylamino)pyridin-2-yl)benzofuran-2-yl)methyl)acrylamide]	> 10 µM	> 10 µM	> 10 µM	–	–	–
Cc1noc(-c2ccc(F)cc2)c1-c1cc(C(F)(F)F)c2oc(CNC(=O)/C=C/c3ccc(N)nc3)cc2c1 [Compound 648, (E)-3-(6-aminopyridin-3-yl)-N-((5-(5-(4-fluorophenyl)-3-methylisoxazol-4-yl)-7-(trifluoromethyl)benzofuran-2-yl)methyl)acrylamide]	0.1 to 5 µM	0.1 to 5 µM	> 10 µM	–	–	–
Nc1ccc(/C=C/C(=O)NCc2cc3cc(-c4ncc(C(=O)N5CCNCC5)cn4)cc(Cl)c3o2)cn1 [Compound 649, (E)-3-(6-aminopyridin-3-yl)-N-((7-chloro-5-(5-(piperazine-1-carbonyl)pyrimidin-2-yl)benzofuran-2-yl)methyl)acrylamide]	0.1 to 5 µM	0.1 to 5 µM	> 10 µM	–	–	–
CC(C)(O)c1ccc(-c2cc(Cl)c3oc(CNC(=O)/C=C/c4ccc(N)nc4)cc3c2)s1 [Compound 650, (E)-3-(6-aminopyridin-3-yl)-N-((7-chloro-5-(5-(2-hydroxypropan-2-yl)thiophen-2-yl)benzofuran-2-yl)methyl)acrylamide]	0.1 to 5 µM	0.1 to 5 µM	> 10 µM	–	–	–
COc1cc(-c2ccc(C(=O)N3CCC(F)(F)CC3)cn2)cc2cc(CNC(=O)/C=C/c3ccc(N)nc3)oc12 [Compound 651, (E)-3-(6-aminopyridin-3-yl)-N-((5-(5-(4,4-difluoropiperidine-1-carbonyl)pyridin-2-yl)-7-methoxybenzofuran-2-yl)methyl)acrylamide]	< 0.1 µM	< 0.1 µM	> 10 µM	–	–	–
Nc1ccc(/C=C/C(=O)NCc2cc3cc(-c4ncc(C(=O)N5CCC(F)(F)CC5)cn4)cc(C(F)(F)F)c3o2)cn1 [Compound 652, (E)-3-(6-aminopyridin-3-yl)-N-((5-(5-(4,4-difluoropiperidine-1-carbonyl)pyrimidin-2-yl)-7-(trifluoromethyl)benzofuran-2-yl)methyl)acrylamide]	0.1 to 5 µM	0.1 to 5 µM	> 10 µM	–	–	–
Nc1ccc(/C=C/C(=O)NCc2cc3cc(-c4ncc(C(=O)N5CCC(F)(F)C5)cn4)cc(C(F)(F)F)c3o2)cn1 [Compound 653, (E)-3-(6-aminopyridin-3-yl)-N-((5-(5-(3,3-difluoropyrrolidine-1-carbonyl)pyrimidin-2-yl)-7-(trifluoromethyl)benzofuran-2-yl)methyl)acrylamide]	0.1 to 5 µM	0.1 to 5 µM	> 10 µM	–	–	–
Nc1ccc(/C=C/C(=O)NCc2cc3cc(-c4ccc(C(=O)N5CCC(F)(F)CC5)cn4)cnc3o2)cn1 [Compound 658, (E)-3-(6-aminopyridin-3-yl)-N-((5-(5-(4,4-difluoropiperidine-1-carbonyl)pyridin-2-yl)furo[2,3-b]pyridin-2-yl)methyl)acrylamide]	–	–	–	0.1 to 5 µM	0.1 to 5 µM	> 10 µM
Nc1ccc(/C=C/C(=O)NCc2cc3cc(-c4ccc(C(=O)N5CCC(F)(F)CC5)cn4)cc(C4CC4)c3o2)cn1 [Compound 659, (E)-3-(6-aminopyridin-3-yl)-N-((7-cyclopropyl-5-(5-(4,4-difluoropiperidine-1-carbonyl)pyridin-2-yl)benzofuran-2-yl)methyl)acrylamide]	–	–	–	0.1 to 5 µM	0.1 to 5 µM	> 10 µM
[2H]C([2H])([2H])Oc1cc(-c2ccc(C(=O)N3CCC(F)(F)CC3)cn2)cc2cc(CNC(=O)/C=C/c3ccc(N)nc3)oc12 [Compound 660, (E)-3-(6-aminopyridin-3-yl)-N-((5-(5-(4,4-difluoropiperidine-1-carbonyl)pyridin-2-yl)-7-(methoxy-d3)benzofuran-2-yl)methyl)acrylamide]	–	–	–	< 0.1 µM	< 0.1 µM	> 10 µM
Nc1ccc(/C=C/C(=O)NCc2cc3cc(-c4ccc(C(=O)N5CC6(C5)CC(F)(F)C6)cn4)cc(C(F)(F)F)c3o2)cn1 [Compound 661, (E)-3-(6-aminopyridin-3-yl)-N-((5-(5-(6,6-difluoro-2-azaspiro[3.3]heptane-2-carbonyl)pyridin-2-yl)-7-(trifluoromethyl)benzofuran-2-yl)methyl)acrylamide]	–	–	–	0.1 to 5 µM	0.1 to 5 µM	> 10 µM
Nc1ccc(/C=C/C(=O)NCc2cc3cc(-c4ccc(C(=O)N5CCC(F)(F)CC5)cn4)cc(-c4nnco4)c3o2)cn1 [Compound 662, (E)-3-(6-aminopyridin-3-yl)-N-((5-(5-(4,4-difluoropiperidine-1-carbonyl)pyridin-2-yl)-7-(1,3,4-oxadiazol-2-yl)benzofuran-2-yl)methyl)acrylamide]	–	–	–	0.1 to 5 µM	0.1 to 5 µM	> 10 µM
Nc1ccc(/C=C/C(=O)NCc2cc3cc(-c4ccc(C(=O)N5CCC(F)(F)CC5)cn4)cc(OC(F)(F)F)c3o2)cn1 [Compound 663, (E)-3-(6-aminopyridin-3-yl)-N-((5-(5-(4,4-difluoropiperidine-1-carbonyl)pyridin-2-yl)-7-(trifluoromethoxy)benzofuran-2-yl)methyl)acrylamide]	–	–	–	< 0.1 µM	< 0.1 µM	0.1 to 5 µM
